Holding throughout (assay): bio-layer interferometry, immobilised protein
Type in all cases: binding

Test [1] deals with T1, BmArgRS (Bombyx mori, UniProt A0A8R1WK71).
T1 construct: gene 101737924; apparently full length (catalytic core 216-481)
T1 sequence (A0A8R1WK71 1-683): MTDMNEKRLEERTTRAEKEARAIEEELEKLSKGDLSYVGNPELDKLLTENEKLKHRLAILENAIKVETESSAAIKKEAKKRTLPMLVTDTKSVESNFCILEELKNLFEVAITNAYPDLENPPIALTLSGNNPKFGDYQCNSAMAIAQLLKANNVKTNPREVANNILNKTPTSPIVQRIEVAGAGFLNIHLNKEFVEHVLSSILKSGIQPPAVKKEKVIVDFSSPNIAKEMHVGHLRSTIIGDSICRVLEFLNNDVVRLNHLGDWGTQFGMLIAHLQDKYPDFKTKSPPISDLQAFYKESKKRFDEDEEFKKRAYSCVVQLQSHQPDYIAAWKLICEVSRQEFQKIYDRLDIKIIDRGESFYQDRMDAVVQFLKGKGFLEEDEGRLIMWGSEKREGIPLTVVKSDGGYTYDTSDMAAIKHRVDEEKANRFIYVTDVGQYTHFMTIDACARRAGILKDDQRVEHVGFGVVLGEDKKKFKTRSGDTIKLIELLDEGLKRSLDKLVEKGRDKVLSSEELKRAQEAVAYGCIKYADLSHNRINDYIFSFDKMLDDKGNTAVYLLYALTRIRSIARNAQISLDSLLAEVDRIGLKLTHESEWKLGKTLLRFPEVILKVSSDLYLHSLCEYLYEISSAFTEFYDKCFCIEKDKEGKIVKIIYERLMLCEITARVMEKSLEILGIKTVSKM
The text has this: bio-layer interferometry, immobilised protein on BmArgRS

The target of test [2] is T2, BmArgRS (Bombyx mori, UniProt A0A8R1WK71, K475A).
T2 construct: gene 101737924; apparently full length (catalytic core 216-481)
T2 sequence (A0A8R1WK71 1-683 K475A): T1 sequence (A0A8R1WK71 1-683) with K475A

Test [3] has as its target T3, BmArgRS (Bombyx mori, UniProt A0A8R1WK71, V468A).
T3 construct: gene 101737924; apparently full length (catalytic core 216-481)
T3 sequence (A0A8R1WK71 1-683 V468A): T1 sequence (A0A8R1WK71 1-683) with V468A

Where a chain is given by its changes, count along the chain named. Where a SMILES comes first, the peptide text is derived from it. [ ]: non-standard residue; d: D form. dLac(3-vinyl) = C=CC[C@@H](O)C(=O)O; NMeV = CN[C@H](C(=O)O)C(C)C; NMeA = CN[C@@H](C)C(=O)O; βAla = NCCC(=O)O

With `C=CC[C@H]1OC(=O)CCNC(=O)[C@H](C)N(C)C(=O)[C@H](C(C)C)N(C)C(=O)[C@H]([C@@H](C)CC)NC(=O)[C@@H]2CCCN2C1=O` [Destruxin A] (cyclo(I[NMeV][NMeA][βAla][dLac(3-vinyl)]P)), the equilibrium dissociation constant (Kd) was determined as 55.3 µM in test [1], 5.71 µM in test [2] and 53 µM in test [3].

As usually defined, the Kd is a measure of binding affinity in units of concentration. Higher therefore signals a looser complex.

The values above are taken from paper PMC7076788, “Interactions of Destruxin A with Silkworms’ Arginine tRNA Synthetase and Lamin-C Proteins” (Toxins, 2020).
